Assays:
[1] = Increase in contractions of electrically stimulated guinea pig longitudinal muscle/myenteric plexus at 2 mM; format: functional, Cavia porcellus, Muscle tissue
[2] = Increase in contractions of electrically stimulated guinea pig longitudinal muscle/myenteric plexus at 0.1 mM; format: functional, Cavia porcellus, Muscle tissue
Cavia porcellus = organism: Cavia porcellus; assay: Increase in contractions of electrically stimulated guinea pig longitudinal muscle/myenteric plexus; format: functional, tissue-based; conditions: Muscle tissue

SMILES	Activity [1]	Activity [2]	Activity (Cavia porcellus)
Cn1c(=N)c2nc[nH]c2n(C)c1=O	34%	–	–
C/N=c1\ncn(C)c2c1[nH]c(=O)n2C [CAISSARONE]	–	80%	Dose-dependent effect

Source: ChEMBL document CHEMBL1146421, “1,3-Dimethylisoguanine, a new purine from the marine sponge Amphimedon viridis” (1997)
